In patent publication US20250188618A1, “AMINO ACID DERIVATIVES AND SULFUR DERIVATIVES AS BIODEGRADABLE CORROSION INHIBITORS” (ChampionX LLC, priority 2023, published 2025):

What was measured:
[1] = Bubble cell test, corrosion rate by linear polarization resistance (LPR); conditions: during 2 hour pre-corrode, prior to the addition of corrosion inhibitor; CO2 saturated 3% NaCl brine 80% / hydrocarbon oil 20%, 65° C.
Procedure: The derivatized succinate corrosion inhibitors made according to Examples 1-5 were evaluated using bubble cell tests to assess corrosion performance using linear polarization resistance testing. The derivatized succinate corrosion inhibitors were combined with the sulfur synergist 2-mercaptoethanol in a solution so that the concentrations of corrosion inhibitor and 2-mercaptoethanol were 10% and 1% by weight, respectively. Methanol, isopropanol, water, and combinations thereof were used as solvents. Acids or bases were sometimes added either to form or neutralize salts of the inhibitors to influence their solubility. This solution was then dosed into the bubble cell at a concentration of 50 ppm, ultimately providing 5 ppm of corrosion inhibitor and 0.5 ppm of 2-mercaptoethanol. The bubble test simulates low flow areas where little or no mixing of water and oil occurs. The test was conducted using a mixed fluid composed of 80% by volume of synthetic brine composed of 3% sodium chloride and 20% of hydrocarbon oil.
The brine without inhibitor was first placed into kettles and purged with carbon dioxide for one hour resulting in carbon dioxide saturated brine. The brine was heated to 65° C., and electrodes were introduced into the de-aerated brine, followed by de-aerated oil, all of which was continually purged with carbon dioxide at 1 bar CO2 to saturate the brine for a 2 hour pre-corrode. The kettles were magnetically stirred at 100 revolutions per minute (rpm) for the duration of the test. The CO2 purge was switched to a blanket, the corrosion inhibitor solution was added, and the test timer started. Data were collected overnight for 15-hour test duration.
The corrosion rate was measured by Linear Polarization Resistance (LPR) techniques. The working electrode used was carbon steel (C1018 grade). The counter and reference electrodes were both Hastelloy. The electrodes were all cleaned and polished prior to testing. Corrosion rates were given in milli-inches per year (mpy), calculated from the current measured by LPR. Corrosion inhibition is compared to two known corrosion inhibitors: a cationic surfactant (alkylbenzyldimethylammonium chloride) and a Tall oil fatty acid (TOFA)-diethylenetriamine (DETA) imidazoline.
The bubble cell results provide a low shear screening designed for continuous application. The performance is measured as percent protection by comparing the initial corrosion rate during pre-corrode, prior to the addition of a corrosion inhibitor, to the final corrosion rate, measured 15 hours after corrosion inhibitor dosing.

[2] = Wheel box testing, corrosion inhibition persistence for batch applications; conditions: 1% corrosion inhibitor active in 3% NaCl, 60° C., saturated CO2 at 1 atm, 96 hour, average of 2 runs; inhibitor in neutral form
Procedure: The corrosion inhibitors were tested using wheel box testing which is a screening method for measuring corrosion inhibition persistence for batch applications. Metal coupons are dip-coated in a solution of the inhibitor in neutral form (non-salt), then placed onto a wheel and immersed in corrosive solution. The wheel is rotated in the solution under desired conditions. At regular time intervals, the solution without inhibitor is replenished. At the conclusion of the test, corrosion rates are measured as a function of the mass loss of the metal coupons.

Row | Molecule | Initial corrosion rate (mpy) [1] [mpy] | Wheel-Box, % Inhibition [2] [%]
1 | 2-(carboxymethylthio)succinic acid, iso-C11-14-alkyl ester, monosodium salt [Example 7] | 160.1 | –
2 | 2-sulfosuccinic acid, iso-C11-14-alkyl ester, disodium salt [Example 6] | 186.9 | –
3 | 6,9-dioxa-3,12-diazatetradecane-1,2,13,14-tetracarboxylic acid, dioleyl ester [Example 10] | 157.2 | 42
4 | CCCCCCCC/C=C\CCCCCCCCN[C@@H](CC(=O)O)C(=O)[O-].[K+] [Example 5, N-(oleyl)aspartic acid, monopotassium salt] | 103.3 | –
5 | CCCCCCCCCCCCSC(CC(=O)O)C(=O)[O-].[Na+] (centres unmarked) [Example 8, 2-(dodecylthio)succinic acid, monosodium salt] | 137.2 | –
6 | CCCCCCCCCCCCOC(=O)CC1NCCN(CCN)C1=O (centres unmarked) [Example 9, (4-(2-aminoethyl)-3-oxo-2-piperazinyl)acetic acid, dodecyl ester] | 204.3 | –
7 | N-(2-ethylhexyl)aspartic acid, 2-ethylhexyl ester [Example 3] | 248.8 | 56
8 | N-(2-ethylhexyl)aspartic acid, C12-15-alkyl ester [Example 1] | 245.7 | –
9 | N-(oleyl)aspartic acid, 2-ethylhexyl ester [Example 4] | 213.0 | 64
10 | N-oleylaspartic acid, iso-C11-14-alkyl ester [Example 2] | 252.4 | –
11 | alkylbenzyldimethylammonium chloride [Cationic surfactant control, reference compound] | 233.4 | –
